# Test results reported in patent US11718604B2, “4-amino-6-(1,3-benzodioxole)picolinates and their use as herbicides” (Dow AgroSciences LLC, priority 2018, dated 2023).
# Tests used:
# Assay type in all cases: in vivo
# [1] = test system: BRSNN: oilseed rape, canola (Brassica napus); assay: Post-emergent herbicidal test, oilseed rape; settings: post-emergence, 336 h, 14 days after application, read-out: Visual Growth Reduction (%) 14 Days After Application BRSNN; for pest or weed control at 17.5 g/ha: 17.5 g ai/ha; for pest or weed control at 35 g/ha: 35 g ai/ha; for pest or weed control at 70 g/ha: 70 g ai/ha; for pest or weed control at 140 g/ha: 140 g ai/ha
# How it was run: (§1)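 Seedlings grown in greenhouse (23-29 °C day, 22-28 °C night, ~15 h photoperiod) to first or second true leaf stage were sprayed overhead at 187 L/ha with compound in acetone/DMSO/water/isopropanol/crop oil/Triton X-155, at the high rate and ½× to 1/16× dilutions. Injury scored visually after 14 d, 0 (none) to 100% (complete kill), relative to untreated plants.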
# [2] = test system: VIOTR: wild violet (Viola tricolor); assay: Post-emergent herbicidal test, wild violet; settings: post-emergence, 336 h, 14 days after application, read-out: Visual Growth Reduction (%) 14 Days After Application VIOTR; for pest or weed control at 17.5 g/ha: 17.5 g ai/ha; for pest or weed control at 35 g/ha: 35 g ai/ha; for pest or weed control at 70 g/ha: 70 g ai/ha; for pest or weed control at 140 g/ha: 140 g ai/ha
# How it was run: as §1
# [3] = test system: ABUTH: velvetleaf (Abutilon theophrasti); assay: Post-emergent herbicidal test, velvetleaf; settings: post-emergence, 336 h, 14 days after application, read-out: Visual Growth Reduction (%) 14 Days After Application ABUTH; for pest or weed control at 17.5 g/ha: 17.5 g ai/ha; for pest or weed control at 35 g/ha: 35 g ai/ha; for pest or weed control at 70 g/ha: 70 g ai/ha; for pest or weed control at 140 g/ha: 140 g ai/ha
# How it was run: as §1
# [4] = test system: IPOHE: ivyleaf morningglory (Ipomoea hederacea); assay: Post-emergent herbicidal test, ivyleaf morningglory; settings: post-emergence, 336 h, 14 days after application, read-out: Visual Growth Reduction (%) 14 Days After Application IPOHE; for pest or weed control at 17.5 g/ha: 17.5 g ai/ha; for pest or weed control at 35 g/ha: 35 g ai/ha; for pest or weed control at 70 g/ha: 70 g ai/ha; for pest or weed control at 140 g/ha: 140 g ai/ha
# How it was run: as §1
# [5] = test system: SETFA: giant foxtail (Setaria faberi); assay: Post-emergent herbicidal test, giant foxtail; settings: post-emergence, 336 h, 14 days after application, read-out: Visual Growth Reduction (%) 14 Days After Application SETFA; for pest or weed control at 17.5 g/ha: 17.5 g ai/ha; for pest or weed control at 35 g/ha: 35 g ai/ha; for pest or weed control at 70 g/ha: 70 g ai/ha; for pest or weed control at 140 g/ha: 140 g ai/ha
# How it was run: as §1
# [6] = test system: EPHHL: wild poinsettia (Euphorbia heterophylla); assay: Post-emergent herbicidal test, wild poinsettia; settings: post-emergence, 336 h, 14 days after application, read-out: Visual Growth Reduction (%) 14 Days After Application EPHHL; for pest or weed control at 17.5 g/ha: 17.5 g ai/ha; for pest or weed control at 35 g/ha: 35 g ai/ha; for pest or weed control at 70 g/ha: 70 g ai/ha; for pest or weed control at 140 g/ha: 140 g ai/ha
# How it was run: as §1
# [7] = test system: SORVU: shattercane (Sorghum bicolor); assay: Post-emergent herbicidal test, shattercane; settings: post-emergence, 336 h, 14 days after application, read-out: Visual Growth Reduction (%) 14 Days After Application SORVU; for pest or weed control at 17.5 g/ha: 17.5 g ai/ha; for pest or weed control at 35 g/ha: 35 g ai/ha; for pest or weed control at 70 g/ha: 70 g ai/ha; for pest or weed control at 140 g/ha: 140 g ai/ha
# How it was run: as §1
# [8] = test system: ECHCG: barnyardgrass (Echinochloa crus-galli); assay: Post-emergent herbicidal test, barnyardgrass; settings: post-emergence, 336 h, 14 days after application, read-out: Visual Growth Reduction (%) 14 Days After Application ECHCG; for pest or weed control at 17.5 g/ha: 17.5 g ai/ha; for pest or weed control at 35 g/ha: 35 g ai/ha; for pest or weed control at 70 g/ha: 70 g ai/ha; for pest or weed control at 140 g/ha: 140 g ai/ha
# How it was run: as §1
# [9] = test system: CYPES: yellow nutsedge (Cyperus esculentus); assay: Post-emergent herbicidal test, yellow nutsedge; settings: post-emergence, 336 h, 14 days after application, read-out: Visual Growth Reduction (%) 14 Days After Application CYPES; for pest or weed control at 17.5 g/ha: 17.5 g ai/ha; for pest or weed control at 35 g/ha: 35 g ai/ha; for pest or weed control at 70 g/ha: 70 g ai/ha; for pest or weed control at 140 g/ha: 140 g ai/ha
# How it was run: as §1
# [10] = test system: DIGSA: large crabgrass (Digitaria sanguinalis); assay: Post-emergent herbicidal test, large crabgrass; settings: post-emergence, 336 h, 14 days after application, read-out: Visual Growth Reduction (%) 14 Days After Application DIGSA; for pest or weed control at 17.5 g/ha: 17.5 g ai/ha; for pest or weed control at 35 g/ha: 35 g ai/ha; for pest or weed control at 70 g/ha: 70 g ai/ha; for pest or weed control at 140 g/ha: 140 g ai/ha
# How it was run: as §1
# [11] = test system: CIRAR: Canada thistle (Cirsium arvense); assay: Post-emergent herbicidal test, Canada thistle; settings: post-emergence, 336 h, 14 days after application, read-out: Visual Growth Reduction (%) 14 Days After Application CIRAR; for pest or weed control at 17.5 g/ha: 17.5 g ai/ha; for pest or weed control at 35 g/ha: 35 g ai/ha; for pest or weed control at 70 g/ha: 70 g ai/ha; for pest or weed control at 140 g/ha: 140 g ai/ha
# How it was run: as §1
smiles,measurement,setting,value
Nc1c(F)c(-c2ccc(Br)c3c2OC(F)(F)O3)nc(C(=O)O)c1Cl [Compound 11],pest or weed control at 17.5 g/ha,[1],90%
same,pest or weed control at 35 g/ha,[1],90%
same,pest or weed control at 70 g/ha,[1],90%
same,pest or weed control at 140 g/ha,[1],90%
same,pest or weed control at 17.5 g/ha,[2],0%
same,pest or weed control at 35 g/ha,[2],0%
same,pest or weed control at 70 g/ha,[2],0%
same,pest or weed control at 140 g/ha,[2],20%
same,pest or weed control at 17.5 g/ha,[3],50%
same,pest or weed control at 35 g/ha,[3],70%
same,pest or weed control at 70 g/ha,[3],80%
same,pest or weed control at 140 g/ha,[3],85%
same,pest or weed control at 17.5 g/ha,[4],0%
same,pest or weed control at 35 g/ha,[4],0%
same,pest or weed control at 70 g/ha,[4],0%
same,pest or weed control at 140 g/ha,[4],0%
same,pest or weed control at 17.5 g/ha,[5],0%
same,pest or weed control at 35 g/ha,[5],0%
same,pest or weed control at 70 g/ha,[5],0%
same,pest or weed control at 140 g/ha,[5],0%
same,pest or weed control at 17.5 g/ha,[6],0%
same,pest or weed control at 35 g/ha,[6],0%
same,pest or weed control at 70 g/ha,[6],0%
same,pest or weed control at 140 g/ha,[6],0%
same,pest or weed control at 17.5 g/ha,[7],0%
same,pest or weed control at 35 g/ha,[7],0%
same,pest or weed control at 70 g/ha,[7],0%
same,pest or weed control at 140 g/ha,[7],10%
same,pest or weed control at 17.5 g/ha,[8],0%
same,pest or weed control at 35 g/ha,[8],0%
same,pest or weed control at 70 g/ha,[8],0%
same,pest or weed control at 140 g/ha,[8],0%
same,pest or weed control at 17.5 g/ha,[9],0%
same,pest or weed control at 35 g/ha,[9],0%
same,pest or weed control at 70 g/ha,[9],0%
same,pest or weed control at 140 g/ha,[9],0%
same,pest or weed control at 17.5 g/ha,[10],0%
same,pest or weed control at 35 g/ha,[10],0%
same,pest or weed control at 70 g/ha,[10],0%
same,pest or weed control at 140 g/ha,[10],0%
same,pest or weed control at 17.5 g/ha,[11],80%
same,pest or weed control at 35 g/ha,[11],85%
same,pest or weed control at 70 g/ha,[11],90%
same,pest or weed control at 140 g/ha,[11],90%
Nc1c(F)c(-c2ccc(I)c3c2OC(F)(F)O3)nc(C(=O)O)c1Cl [Compound 12],pest or weed control at 17.5 g/ha,[1],70%
same,pest or weed control at 35 g/ha,[1],80%
same,pest or weed control at 70 g/ha,[1],90%
same,pest or weed control at 140 g/ha,[1],100%
same,pest or weed control at 17.5 g/ha,[2],0%
same,pest or weed control at 35 g/ha,[2],0%
same,pest or weed control at 70 g/ha,[2],0%
same,pest or weed control at 140 g/ha,[2],0%
same,pest or weed control at 17.5 g/ha,[3],0%
same,pest or weed control at 35 g/ha,[3],0%
same,pest or weed control at 70 g/ha,[3],70%
same,pest or weed control at 140 g/ha,[3],80%
same,pest or weed control at 17.5 g/ha,[4],0%
same,pest or weed control at 35 g/ha,[4],0%
same,pest or weed control at 70 g/ha,[4],0%
same,pest or weed control at 140 g/ha,[4],0%
same,pest or weed control at 17.5 g/ha,[5],0%
same,pest or weed control at 35 g/ha,[5],0%
same,pest or weed control at 70 g/ha,[5],0%
same,pest or weed control at 140 g/ha,[5],0%
same,pest or weed control at 17.5 g/ha,[6],0%
same,pest or weed control at 35 g/ha,[6],0%
same,pest or weed control at 70 g/ha,[6],0%
same,pest or weed control at 140 g/ha,[6],0%
same,pest or weed control at 17.5 g/ha,[7],0%
same,pest or weed control at 35 g/ha,[7],0%
same,pest or weed control at 70 g/ha,[7],0%
same,pest or weed control at 140 g/ha,[7],0%
same,pest or weed control at 17.5 g/ha,[8],0%
same,pest or weed control at 35 g/ha,[8],0%
same,pest or weed control at 70 g/ha,[8],0%
same,pest or weed control at 140 g/ha,[8],0%
same,pest or weed control at 17.5 g/ha,[9],0%
same,pest or weed control at 35 g/ha,[9],0%
same,pest or weed control at 70 g/ha,[9],0%
same,pest or weed control at 140 g/ha,[9],0%
same,pest or weed control at 17.5 g/ha,[10],0%
same,pest or weed control at 35 g/ha,[10],0%
same,pest or weed control at 70 g/ha,[10],0%
same,pest or weed control at 140 g/ha,[10],0%
same,pest or weed control at 17.5 g/ha,[11],65%
same,pest or weed control at 35 g/ha,[11],80%
same,pest or weed control at 70 g/ha,[11],85%
same,pest or weed control at 140 g/ha,[11],85%
